Each structure is given as a SMILES string. pIC50: −log10 of the molar value.

Data set [1] is described as follows: Metabolic stability in human liver microsomes. Particulars: 1 µM compound; for CLblood, human microsomes: hepatic in vivo blood clearance calculated with well stirred liver model, '(stable)' given beside < 0.01; for Fmax, human microsomes: maximal oral bioavailability calculated with well stirred liver model, 0.5 mg/mL protein, '(stable)' given beside 100.
Another data set has as its target T1, human IRAK4 (Homo sapiens, UniProt Q9NWZ3).
T1 construct: GST (N); made in house; host or cells: baculovirus-infected Hi5 (BTI-TN-5B1-4) insect cells
T1 sequence (Q9NWZ3 1-460): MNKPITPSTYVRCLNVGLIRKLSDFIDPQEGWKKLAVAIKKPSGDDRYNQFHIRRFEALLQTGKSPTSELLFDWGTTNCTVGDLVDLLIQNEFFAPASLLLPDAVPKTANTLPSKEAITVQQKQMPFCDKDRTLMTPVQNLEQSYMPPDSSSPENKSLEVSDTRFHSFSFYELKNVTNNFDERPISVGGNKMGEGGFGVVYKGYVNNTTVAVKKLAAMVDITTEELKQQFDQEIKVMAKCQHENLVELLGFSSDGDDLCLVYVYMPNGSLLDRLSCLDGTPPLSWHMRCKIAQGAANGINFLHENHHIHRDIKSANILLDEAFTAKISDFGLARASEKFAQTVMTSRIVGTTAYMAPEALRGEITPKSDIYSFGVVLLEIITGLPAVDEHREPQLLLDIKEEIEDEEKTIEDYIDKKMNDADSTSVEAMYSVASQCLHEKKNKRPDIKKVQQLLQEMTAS
Put plainly: Human IRAK4 kinase activity inhibition assay (IRAK4 TR-FRET assay). Particulars: 1 mM ATP, GST-human IRAK4, average or median values. The format is biochemical. The gist of the method: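 Signal was the 665/620 nm emission ratio from a europium anti-mouse-IgG, anti-phosphoserine antibody and streptavidin-XL665 complex formed over 1 h at 22°C. It was scaled between no-enzyme (100%) and no-compound (0%) wells. Beforehand, compounds (20 µM down to 0.073 nM, 11 points) sat 15 min with roughly 0.2 nM insect-cell-expressed GST-human IRAK4 before phosphorylation of a biotinylated peptide substrate.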

With `C[C@]1(N)C[C@@H](Nc2nc(N3CCOCC3)c3cnn(-c4cccc(C(F)(F)F)c4)c3n2)C1` [Example I-58, cis-1-methyl-N^3-{4-(morpholin-4-yl)-1-[3-(trifluoromethyl)phenyl]-1H-pyrazolo[3,4-d]pyrimidin-6-yl}cyclobutane-1,3-diamine], in data set [1], the “CLblood, human microsomes” value is < 0.01 (stable) L/h/kg and the “Fmax, human microsomes” value is listed as 100 (stable) %. The pIC50 on human IRAK4 was 7.64.

As for `CC1(N2CCOCC2)CN(c2nc(N[C@H]3C[C@H](S(C)(=O)=O)C3)nc3c2cnn3-c2cccc(C(F)(F)F)c2)C1` [Example I-59, 4-[3-methyl-3-(morpholin-4-yl)azetidin-1-yl]-N-[trans-3-(methylsulfonyl)cyclobutyl]-1-[3-(trifluoromethyl)phenyl]-1H-pyrazolo[3,4-d]pyrimidin-6-amine], in data set [1], the “CLblood, human microsomes” value is recorded as 0.34 L/h/kg and the “Fmax, human microsomes” value is 74%. This compound gave a pIC50 against human IRAK4 of 8.44.

For `O=S1(=O)CCC(Nc2nc(N3CC(CN4CCOCC4)C3)c3cnn(-c4cccc(C(F)(F)F)c4)c3n2)CC1` [Example I-60, N-(1,1-dioxidotetrahydro-2H-thiopyran-4-yl)-4-[3-(morpholin-4-ylmethyl)azetidin-1-yl]-1-[3-(trifluoromethyl)phenyl]-1H-pyrazolo[3,4-d]pyrimidin-6-amine], in data set [1], the “CLblood, human microsomes” value is given as 0.37 L/h/kg and the “Fmax, human microsomes” value was 72%. The pIC50 against human IRAK4 was 7.47.

As to `NC1(C2CCN(c3nc(NC4CCS(=O)(=O)CC4)nc4c3cnn4-c3cccc(C(F)(F)F)c3)CC2)CC1` [Example I-62, 4-[4-(1-aminocyclopropyl)piperidin-1-yl]-N-(1,1-dioxidotetrahydro-2H-thiopyran-4-yl)-1-[3-(trifluoromethyl)phenyl]-1H-pyrazolo[3,4-d]pyrimidin-6-amine], in data set [1], the “CLblood, human microsomes” value is recorded as < 0.01 (stable) L/h/kg and the “Fmax, human microsomes” value is 100 (stable) %. The compound further showed a pIC50 against human IRAK4 of 8.59.

Regarding `CC(C)(O)C1CCN(c2nc(N[C@H]3CN4CCC3CC4)nc3c2cnn3-c2cccc(C(F)(F)F)c2)CC1` [Example I-64-1, 2-(1-{6-[(3R)-1-azabicyclo[2.2.2]octan-3-ylamino]-1-[3-(trifluoromethyl)phenyl]-1H-pyrazolo[3,4-d]pyrimidin-4-yl}piperidin-4-yl)propan-2-ol], in data set [1], the “CLblood, human microsomes” value is on record as 0.32 L/h/kg and the “Fmax, human microsomes” value is 76%. The compound further showed a pIC50 at human IRAK4 of 8.07.

As for `CC(C)(O)CC1CN(c2nc(N[C@H]3C[C@H](S(C)(=O)=O)C3)nc3c2cnn3-c2cccc(C(F)(F)F)c2)C1` [Example I-67, 2-methyl-1-[1-(6-{[trans-3-(methylsulfonyl)cyclobutyl]amino}-1-[3-(trifluoromethyl)-phenyl]-1H-pyrazolo[3,4-d]pyrimidin-4-yl)azetidin-3-yl]propan-2-ol], in data set [1], the “CLblood, human microsomes” value was 0.24 L/h/kg and the “Fmax, human microsomes” value was 82%. This compound gave a pIC50 against human IRAK4 of 8.27.

`CC(C)(O)CC1CN(c2nc(NC3CN(S(C)(=O)=O)C3)nc3c2cnn3-c2cccc(C(F)(F)F)c2)C1` [Example I-68, 2-methyl-1-[1-(6-{[1-(methylsulfonyl)azetidin-3-yl]amino}-1-[3-(trifluoromethyl)phenyl]-1H-pyrazolo[3,4-d]pyrimidin-4-yl)azetidin-3-yl]propan-2-ol]: in data set [1], the “CLblood, human microsomes” value was 0.02 L/h/kg and the “Fmax, human microsomes” value was 99%. The compound further had a pIC50 on human IRAK4 of 7.64.

Consider `O[C@H]1C[C@H](Nc2nc(N3CC(N4CCOCC4)C3)c3cnn(-c4cccc(C(F)(F)F)c4)c3n2)C1` [Example I-74, trans-3-({4-[3-(morpholin-4-yl)azetidin-1-yl]-1-[3-(trifluoromethyl)phenyl]-1H-pyrazolo-[3,4-d]pyrimidin-6-yl}amino)cyclobutanol], for which, in data set [1], the “CLblood, human microsomes” value is reported as 0.11 L/h/kg and the “Fmax, human microsomes” value is 91%. At human IRAK4, this compound had a pIC50 of 8.32.

As to `CC1(N2CCOCC2)CN(c2nc(N[C@H]3C[C@@H](O)C3)nc3c2cnn3-c2cccc(C(F)(F)F)c2)C1` [Example I-76, cis-3-({4-[3-methyl-3-(morpholin-4-yl)azetidin-1-yl]-1-[3-(trifluoromethyl)phenyl]-1H-pyrazolo[3,4-d]pyrimidin-6-yl}amino)cyclobutanol], in data set [1], the “CLblood, human microsomes” value is reported as 0.30 L/h/kg and the “Fmax, human microsomes” value is reported as 77%. Also, on human IRAK4, the pIC50 is 8.02.

Regarding `C[C@]1(O)C[C@H](Nc2nc(N3CC(N4CCOCC4)C3)c3cnn(-c4cccc(C(F)(F)F)c4)c3n2)C1` [Example I-77, trans-1-methyl-3-({4-[3-(morpholin-4-yl)azetidin-1-yl]-1-[3-(trifluoromethyl)phenyl]-1H-pyrazolo[3,4-d]pyrimidin-6-yl}amino)cyclobutanol], in data set [1], the “CLblood, human microsomes” value was 0.36 L/h/kg and the “Fmax, human microsomes” value is 72%. This compound also gave a pIC50 against human IRAK4 of 8.32.

Consider `C[C@]1(O)C[C@@H](Nc2nc(N3CC(N4CCOCC4)C3)c3cnn(-c4cccc(C(F)(F)F)c4)c3n2)C1` [Example I-78, cis-1-methyl-3-({4-[3-(morpholin-4-yl)azetidin-1-yl]-1-[3-(trifluoromethyl)phenyl]-1H-pyrazolo[3,4-d]pyrimidin-6-yl}amino)cyclobutanol], for which, in data set [1], the “CLblood, human microsomes” value is 0.32 L/h/kg and the “Fmax, human microsomes” value is recorded as 76%. For the same compound, the pIC50 at human IRAK4 was 8.25.

For `CC1(O)CCN(C2CN(c3nc(N[C@H]4C[C@H](O)C4)nc4c3cnn4-c3cccc(C(F)(F)F)c3)C2)CC1` [Example I-79, 1-(1-{6-[(trans-3-hydroxycyclobutyl)amino]-1-[3-(trifluoromethyl)phenyl]-1H-pyrazolo-[3,4-d]pyrimidin-4-yl}azetidin-3-yl)-4-methylpiperidin-4-ol], in data set [1], the “CLblood, human microsomes” value is listed as 0.41 L/h/kg and the “Fmax, human microsomes” value is given as 69%. The same compound gave a pIC50 against human IRAK4 of 8.11.

On to `CC(C)(O)C1CN(c2nc(N[C@H]3C[C@H](S(C)(=O)=O)C3)nc3c2cnn3-c2cccc(C(F)(F)F)c2)C1` [Example I-83, 2-[1-(6-{[trans-3-(methylsulfonyl)cyclobutyl]amino}-1-[3-(trifluoromethyl)phenyl]-1H-pyrazolo[3,4-d]pyrimidin-4-yl)azetidin-3-yl]propan-2-ol], for which, in data set [1], the “CLblood, human microsomes” value is given as 0.23 L/h/kg and the “Fmax, human microsomes” value is given as 83%. In addition, on human IRAK4, the pIC50 is 8.26.

With `O[C@@H]1CN(c2nc(N[C@H]3C[C@@H](O)C3)nc3c2cnn3-c2cccc(C(F)(F)F)c2)C[C@H]1O` [Example I-85, (3R,4R)-1-(6-{[(1s,3S)-3-hydroxycyclobutyl]amino}-1-[3-(trifluoromethyl)phenyl]-1H-pyrazolo[3,4-d]pyrimidin-4-yl)pyrrolidine-3,4-diol], in data set [1], the “CLblood, human microsomes” value was < 0.01 (stable) L/h/kg and the “Fmax, human microsomes” value is recorded as 100 (stable) %. Moreover, the pIC50 on human IRAK4 is 8.62.

For `CS(=O)(=O)[C@H]1C[C@H](Nc2nc(N3C[C@@H](O)[C@H](F)C3)c3cnn(-c4cccc(C(F)(F)F)c4)c3n2)C1` [Example I-86, (3R,4R)-4-fluoro-1-(6-{[(1r,3R)-3-(methylsulfonyl)cyclobutyl]amino}-1-[3-(trifluoromethyl)phenyl]-1H-pyrazolo[3,4-d]pyrimidin-4-yl)pyrrolidin-3-ol], in data set [1], the “CLblood, human microsomes” value was 0.25 L/h/kg and the “Fmax, human microsomes” value is recorded as 81%. At human IRAK4, this compound showed a pIC50 of 8.44.

As to `O[C@@H]1CN(c2nc(N[C@H]3C[C@H](O)C3)nc3c2cnn3-c2cccc(C(F)(F)F)c2)C[C@H]1F` [Example I-88, (3R,4R)-4-fluoro-1-(6-{[(1r,3R)-3-hydroxycyclobutyl]amino}-1-[3-(trifluoromethyl)-phenyl]-1H-pyrazolo[3,4-d]pyrimidin-4-yl)pyrrolidin-3-ol], in data set [1], the “CLblood, human microsomes” value is 0.57 L/h/kg and the “Fmax, human microsomes” value was 57%. The compound also had a pIC50 against human IRAK4 of 8.40.

For `O[C@@H]1CN(c2nc(N[C@H]3C[C@@H](O)C3)nc3c2cnn3-c2cccc(C(F)(F)F)c2)C[C@H]1F` [Example I-89, (3R,4R)-4-fluoro-1-(6-{[(1s,3S)-3-hydroxycyclobutyl]amino}-1-[3-(trifluoromethyl)-phenyl]-1H-pyrazolo[3,4-d]pyrimidin-4-yl)pyrrolidin-3-ol], in data set [1], the “CLblood, human microsomes” value is 0.37 L/h/kg and the “Fmax, human microsomes” value is 72%. The pIC50 against human IRAK4 is 8.33.

As to `CC(C)(O)C1CCN(c2nc(N[C@H]3C[C@](C)(O)C3)nc3c2cnn3-c2cccc(C(F)(F)F)c2)CC1` [Example I-91, trans-3-({4-[4-(2-hydroxypropan-2-yl)piperidin-1-yl]-1-[3-(trifluoromethyl)phenyl]-1H-pyrazolo[3,4-d]pyrimidin-6-yl}amino)-1-methylcyclobutanol], in data set [1], the “CLblood, human microsomes” value is 0.04 L/h/kg and the “Fmax, human microsomes” value is recorded as 97%. The same compound gave a pIC50 on human IRAK4 of 8.19.

The values above are taken from patent EP3800188A1, “SUBSTITUTED PYRAZOLOPYRIMIDINES AS IRAK4 INHIBITORS” (Bayer AG, priority 2019, dated 2021).
